According to the NIST ThermoML archive (doi:10.1016/j.jct.2008.09.002):

Experiments:
[1] = xn = mol fraction of the nth substance listed; settings: 101.3 kPa, Liquid, Vibrating tube method
[2] = molar heat capacity at constant pressure; xn = mol fraction of the nth substance listed; settings: 101.3 kPa, Liquid, Small sample (50 mg) DSC
[3] = excess molar enthalpy (molar enthalpy of mixing); xn = mol fraction of the nth substance listed; settings: 303.15 K, 101.3 kPa, Liquid, Calvet calorimetry

CCCCCCn1cc[n+](C)c1.F[B-](F)(F)F [1-hexyl-3-methylimidazolium tetrafluoroborate] + C[N+](=O)[O-]
Settings | mass density, [1] [kg/m3] | molar heat capacity at constant pressure, [2] [J/K/mol]
293.15 K, x1 = 0.098 | 1148.7 | 136.3
293.15 K, x1 = 0.1933 | 1150.7 | 166.4
293.15 K, x1 = 0.3062 | 1151.2 | 202.6
293.15 K, x1 = 0.3988 | 1151.1 | 232.4
293.15 K, x1 = 0.4936 | 1150.9 | 262.8
293.15 K, x1 = 0.5941 | 1150.5 | 295.4
293.15 K, x1 = 0.5973 | 1150.5 | –
293.15 K, x1 = 0.6839 | 1150.1 | –
293.15 K, x1 = 0.6917 | 1150 | 326.6
293.15 K, x1 = 0.7702 | 1149.8 | 351.4
293.15 K, x1 = 0.7767 | 1149.7 | –
293.15 K, x1 = 0.786 | 1149.6 | –
293.15 K, x1 = 0.8514 | 1149.3 | –
293.15 K, x1 = 0.8665 | 1149.2 | 382.6
293.15 K, x1 = 0.8727 | 1149.2 | –
298.15 K, x1 = 0.098 | 1143.2 | 136.7
298.15 K, x1 = 0.1933 | 1145.8 | 167
298.15 K, x1 = 0.3062 | 1146.7 | 203.5
298.15 K, x1 = 0.3988 | 1146.9 | 233.4
298.15 K, x1 = 0.4936 | 1146.8 | 264
298.15 K, x1 = 0.5941 | 1146.6 | 296.8
298.15 K, x1 = 0.5973 | 1146.6 | –
298.15 K, x1 = 0.6839 | 1146.4 | –
298.15 K, x1 = 0.6917 | 1146.2 | 328.3
298.15 K, x1 = 0.7702 | 1146.1 | 353.4
298.15 K, x1 = 0.7767 | 1146 | –
298.15 K, x1 = 0.786 | 1146 | –
298.15 K, x1 = 0.8514 | 1145.8 | –
298.15 K, x1 = 0.8665 | 1145.7 | 384.8
298.15 K, x1 = 0.8727 | 1145.7 | –
303.15 K, x1 = 0.098 | 1137.7 | 137.2
303.15 K, x1 = 0.1933 | 1140.9 | 167.7
303.15 K, x1 = 0.3062 | 1142.3 | 204.4
303.15 K, x1 = 0.3988 | 1142.7 | 234.5
303.15 K, x1 = 0.4936 | 1142.8 | 265.4
303.15 K, x1 = 0.5941 | 1142.8 | 298.3
303.15 K, x1 = 0.5973 | 1142.8 | –
303.15 K, x1 = 0.6839 | 1142.6 | –
303.15 K, x1 = 0.6917 | 1142.5 | 330
303.15 K, x1 = 0.7702 | 1142.5 | 355.4
303.15 K, x1 = 0.7767 | 1142.4 | –
303.15 K, x1 = 0.786 | 1142.4 | –
303.15 K, x1 = 0.8514 | 1142.3 | –
303.15 K, x1 = 0.8665 | 1142.1 | 387
303.15 K, x1 = 0.8727 | 1142.2 | –
308.15 K, x1 = 0.098 | 1132.1 | 137.7
308.15 K, x1 = 0.1933 | 1136 | 168.4
308.15 K, x1 = 0.3062 | 1137.8 | 205.3
308.15 K, x1 = 0.3988 | 1138.5 | 235.6
308.15 K, x1 = 0.4936 | 1138.8 | 266.7
308.15 K, x1 = 0.5941 | 1138.9 | 299.8
308.15 K, x1 = 0.5973 | 1138.9 | –
308.15 K, x1 = 0.6839 | 1138.9 | –
308.15 K, x1 = 0.6917 | 1138.8 | 331.7
308.15 K, x1 = 0.7702 | 1138.9 | 357.3
308.15 K, x1 = 0.7767 | 1138.8 | –
308.15 K, x1 = 0.786 | 1138.8 | –
308.15 K, x1 = 0.8514 | 1138.7 | –
308.15 K, x1 = 0.8665 | 1138.6 | 389.1
308.15 K, x1 = 0.8727 | 1138.6 | –
313.15 K, x1 = 0.098 | 1126.6 | 138.3
313.15 K, x1 = 0.1933 | 1131.1 | 169.2
313.15 K, x1 = 0.3062 | 1133.4 | 206.3
313.15 K, x1 = 0.3988 | 1134.3 | 236.9
313.15 K, x1 = 0.4936 | 1134.8 | 268.2
313.15 K, x1 = 0.5941 | 1135.1 | 301.3
313.15 K, x1 = 0.5973 | 1135.1 | –
313.15 K, x1 = 0.6839 | 1135.2 | –
313.15 K, x1 = 0.6917 | 1135.1 | 333.4
313.15 K, x1 = 0.7702 | 1135.3 | 359.2
313.15 K, x1 = 0.7767 | 1135.2 | –
313.15 K, x1 = 0.786 | 1135.2 | –
313.15 K, x1 = 0.8514 | 1135.2 | –
313.15 K, x1 = 0.8665 | 1135.1 | 391.3
313.15 K, x1 = 0.8727 | 1135.1 | –
318.15 K, x1 = 0.098 | 1121 | 138.8
318.15 K, x1 = 0.1933 | 1126.2 | 169.9
318.15 K, x1 = 0.3062 | 1129 | 207.3
318.15 K, x1 = 0.3988 | 1130.2 | 238.1
318.15 K, x1 = 0.4936 | 1130.9 | 269.6
318.15 K, x1 = 0.5941 | 1131.3 | 302.8
318.15 K, x1 = 0.5973 | 1131.3 | –
318.15 K, x1 = 0.6839 | 1131.5 | –
318.15 K, x1 = 0.6917 | 1131.4 | 335
318.15 K, x1 = 0.7702 | 1131.6 | 361.1
318.15 K, x1 = 0.7767 | 1131.6 | –
318.15 K, x1 = 0.786 | 1131.6 | –
318.15 K, x1 = 0.8514 | 1131.7 | –
318.15 K, x1 = 0.8665 | 1131.6 | 393.4
318.15 K, x1 = 0.8727 | 1131.6 | –

[3]
Settings | excess molar enthalpy [kcal/mol]
x1 = 0.1 | -0.0174
x1 = 0.2074 | -0.0296
x1 = 0.3028 | -0.0349
x1 = 0.4096 | -0.0382
x1 = 0.5095 | -0.038
x1 = 0.6072 | -0.0342
x1 = 0.7148 | -0.027
x1 = 0.7891 | -0.0225
x1 = 0.8821 | -0.012
